Legend:
[1] = test system: SU-DHL-2 cells (MYD88-S222R); test: In vivo tumor growth inhibition in ABC-DLBCL tumor model (SU-DHL-2 xenograft); settings: SU-DHL-2 in female SCID Beige mice; 27 continuous days qd po; Compound A/CA-4948 100 mg/kg, venetoclax 75 mg/kg
Method: Female SCID Beige mice were implanted with SU-DHL-2 cells which harbor MYD88-S222R pathway activating mutations. The mice were treated with Compound A (100 mg/kg, qd, po, suspension in 0.5% Tween 20 and 0.25% hydroxyethyl cellulose), venetoclax (75 mg/kg, qd, po, solution in 60% phosal 50PG, 30% PEG 400, and 10% ethanol) or the combination for 27 continuous days.
All in life data acquisition, including body weight, tumor length, tumor diameter, tumor ulceration, clinical signs and animal mortality was collected in Study Director. Tumor ulceration was scored on a 6 level system with severity of 4 or higher requiring attention. At the end of the study (24 hours after the last dose), all surviving animals were examined externally for possible clinical abnormalities or adverse clinical signs, weighed and tumor measurements were taken for the last time.

[2] = test system: ABC-DLBCL cell line OCI-Ly10 (MYD88-L265P, CD79A ITAM); test: In vivo tumor growth inhibition in ABC-DLBCL tumor model (OCI-Ly10 xenograft); settings: OCI-Ly10 in female SCID Beige mice; 21 continuous days qd po; Compound A 50 mg/kg, venetoclax 75 mg/kg
Method: Female SCID Beige mice were implanted with the ABC-DLBCL cell line OCI-Ly10, which harbors TLR (MYD88-L265P) and BCR (CD79A ITAM) pathway activating mutations. The mice were treated with Compound A (50 mg/kg, qd, po, suspension in 0.5% Tween 20 and 0.25% hydroxyethyl cellulose), venetoclax (75 mg/kg, qd, po, solution in 60% phosal 50PG, 30% PEG 400, and 10% ethanol) or the combination for 21 continuous days.
After the 21-day drug treatment period, the mice were given a 19-day dosing holiday. […] After the 19-day drug holiday, dosing of the respective drug treatments was reinstated to each cohort.

OCI-LY3 = test: ABC-DLBCL MYD88-L265P xenograft tumor model, OCI-LY3; format: in vivo
ABC-DLBCL PDX tumors = ABC-DLBCL PDX tumors (MYD88 and CD79B double mutants); format: in vivo; settings: activating mutations in TLR/IL-1R and BCR pathways (MYD88 and CD79B double mutants)
OCI-LY10 = test: ABC-DLBCL MYD88-L265P xenograft tumor model, OCI-LY10 (dose response); format: in vivo

Compound	TGI % (Day 28) [1] [%]	tumor growth inhibition (TGI) [2] [%]	efficacy in xenograft tumor model (OCI-LY3)	efficacy in PDX tumors (ABC-DLBCL PDX tumors)	efficacy in xenograft tumor model (OCI-LY10)
Cc1cc(-c2nc(C(=O)Nc3cc4oc(N5CCOCC5)nc4nc3N3CC[C@@H](O)C3)co2)ccn1 [Compound A]	66	63	dose-dependent efficacy	efficacious	dose-dependent efficacy
CC1(C)CCC(CN2CCN(c3ccc(C(=O)NS(=O)(=O)c4ccc(NCC5CCOCC5)c([N+](=O)[O-])c4)c(Oc4cnc5[nH]ccc5c4)c3)CC2)=C(c2ccc(Cl)cc2)C1 [venetoclax, reference compound]	–	71	–	–	–

Reference: patent US10758518B2, “Compounds and compositions for treating hematological disorders” (Curis, Inc., priority 2017, dated 2020)
